Values of other authors in patent US20230022136A1, “DIFFUSIVITY CONTRAST AGENTS FOR MEDICAL IMAGING” (priority 2020, published 2023).

Details: attributed to increased hydrogen bonding of the water molecules

Compound: CC(/C=C/C=C(\C)C(=O)[O-])=C\C=C\C=C(C)\C=C\C=C(/C)C(=O)[O-].[Na+].[Na+] [Trans-Sodium crocetinate]
- increase of the diffusion coefficient of glucose through water: 25-30%
